From patent US20200230100A1, “AGONIST OF 67 KDA LAMININ RECEPTOR AND UTILIZATION THEREOF” (priority 2017, published 2020)

Tests used:
U266 [1] = test: Anti-cancer activity enhancing action by flavanone (ATPlite cell viability); assay type: cell-based, human; conditions: U266, flavanone 5 μM with OHBFB 2.5 μM, 96 hours
Method: Specifically, U266 which is a human multiple myeloma cell line was suspended in an RPMI 1640 medium supplemented with 1% FCS, SOD (5 U/mL), and a catalase (200 U/mL) to 5×10^4 cells/mL, and the suspension was seeded at 100 μL per well in a 96-well plate. […] As a control, a sample to which the same volume of PBS had been added instead of flavanone was used. As the flavanone, eriodictyol (manufactured by Extrasynthese Corp.), naringenin (manufactured by Tokyo Chemical Industry Co., Ltd.), and hesperetin (manufactured by Wako Pure Chemical Industries, Ltd.) were used. Subsequently, the cell viability was measured using a commercially available kit (trade name “ATPlite,” PerkinElmer).

U266 [2] = test: Anti-cancer activity enhancing action by eriodictyol (ATPlite cell viability, isobologram analysis); assay type: cell-based, human
U266 [3] = test: Anti-cancer activity enhancing action by PDE5 inhibitor vardenafil (ATPlite cell viability, isobologram analysis); assay type: cell-based; conditions: Homo sapiens, U-266, 96 h, read-out: IC50 of vardenafil alone
Method: Specifically, a human multiple myeloma cell line U266 was suspended in an RPMI 1640 medium supplemented with 1% FCS, SOD (5 U/mL), and a catalase (200 U/mL) to 5×10^4 cells/mL, and the suspension was seeded at 100 μL per well in a 96-well plate.
Subsequently, vardenafil (manufactured by Cayman Chemical Co.) which is a PDE5 inhibitor was added to a final concentration of 5 μM and the mixture was incubated for 3 hours. […] Thereafter, the cell viability was measured using a commercially available kit (trade name “ATPlite,” PerkinElmer).
In addition, the same studies as described above were performed in the presence of vardenafil alone at final concentrations of 0, 5, 10, 25, 50, and 100 μM.

ARH77 = test: Anti-cancer action: number of viable cells (ATPlite) after 96 hours of culture; assay type: cell-based; conditions: ARH77 human multiple myeloma cell line
Method: (§1) Specifically, OHBFB was added to a medium of various cancer cell lines and the number of viable cells was measured. For comparison, the anti-cancer action of epigallocatechin gallate (hereinafter sometimes referred to as “EGCG”) was also studied similarly.
(§2) Examples of the cancer cell lines include U266 which is a human multiple myeloma cell line, ARH77 which is a human multiple myeloma cell line, RPMI8226 which is a human multiple myeloma cell line, Mec-1 which is a human chronic lymphocytic leukemia cell line, HL60 which is a human acute myeloid leukemia cell line, Kasumi-1 which is a human acute myeloid leukemia cell line, and KU812 which is human chronic myeloid leukemia cell line were used.
(§3) As each of the cancer cell lines, a cell line obtained by subculturing the cells under the conditions of 37° C. and 5% CO2 saturated with water vapor using an RPMI 1640 medium supplemented with a 10% fetal calf serum (FCS), and culturing and maintaining the cells in a logarithmic growth phase.
(§4) EGCG (manufactured by Sigma-Aldrich) was dissolved in ultrapure water to 5 mM, stored at −30° C., and appropriately thawed before use. OHBFB (manufactured by Nagara Bioscience) was dissolved in ultrapure water to 5 mM, stored at −30° C., and appropriately thawed before use.
(§5) Each of the cancer cell lines was suspended in an RPMI 1640 medium supplemented with a 1% FCS, superoxide dismutase (SOD) (5 U/mL), and a catalase (200 U/mL) to 5×10^4 cells/mL, the suspension was seeded at 100 μL/well in a 96-well plate, OHBFB or EGCG at a final concentration of 0, 5, 10, or 25 μM was added thereto, and the cells were cultured for 96 hours. Thereafter, the number of viable cells was measured using a commercially available kit (trade name “ATPlite,” PerkinElmer).

KU812 = test: as above; assay type: cell-based; conditions: KU812 human chronic myeloid leukemia cell line
Method: as §1, §2, §3, §4, §5

Mec-1 = test: as above; assay type: cell-based; conditions: Mec-1 human chronic lymphocytic leukemia cell line
Method: as §1, §2, §3, §4, §5

RPMI8226 = test: as above; assay type: cell-based; conditions: RPMI8226 human multiple myeloma cell line
Method: as §1, §2, §3, §4, §5

U266 [4] = test: as above; assay type: cell-based; conditions: U266 human multiple myeloma cell line
Method: as §1, §2, §3, §4, §5

HL60 = test: as above; assay type: cell-based; conditions: HL60 human acute myeloid leukemia cell line
Kasumi-1 = test: as above; assay type: cell-based; conditions: Kasumi-1 human acute myeloid leukemia cell line

Compound: COc1ccc([C@@H]2CC(=O)c3c(O)cc(O)cc3O2)cc1O [hesperetin]
- cell viability: enhancement of OHBFB anti-cancer activity by flavanone (U266 [1]): enhance the anti-cancer activity of OHBFB

Compound: O=C1C[C@@H](c2ccc(O)c(O)c2)Oc2cc(O)cc(O)c21 [eriodictyol]
- IC50 (U266 [2]; Homo sapiens, U-266, 96 h, read-out: IC50 of eriodictyol alone): 89.4 µM
- combined use of OHBFB and eriodictyol (isobologram analysis) (U266 [2]; U266, isobologram): synergistically enhances the anti-cancer activity of OHBFB
- cell viability: enhancement of OHBFB anti-cancer activity by flavanone (U266 [1]): enhance the anti-cancer activity of OHBFB

Compound: O=C1C[C@@H](c2ccc(O)cc2)Oc2cc(O)cc(O)c21 [naringenin]
- cell viability: enhancement of OHBFB anti-cancer activity by flavanone (U266 [1]): enhance the anti-cancer activity of OHBFB

Compound: CCCc1nc(C)c2c(=O)[nH]c(-c3cc(S(=O)(=O)N4CCN(CC)CC4)ccc3OCC)nn12 [vardenafil]
- IC50 (U266 [3]): 92.7 µM

Compound: O=C(O[C@@H]1Cc2c(O)cc(O)cc2O[C@@H]1c1cc(O)c(O)c(O)c1)c1cc(O)c(O)c(O)c1 [EGCG, epigallocatechin gallate]
- IC50 (ARH77): 4 µM
- IC50 (KU812): 6.2 µM
- IC50 (Mec-1): 8.3 µM
- IC50 (RPMI8226): 11.1 µM
- IC50 (U266 [4]): 11.8 µM
- IC50 (HL60): 9.5 µM
- IC50 (Kasumi-1): 9.6 µM
